Earlier results as cited in patent publication US20200289553A1, “Compositions and Methods for the Treatment of Metabolic Conditions” (REVEN IP HOLDCo LLC, priority 2017, published 2020).

Columns and labels:
[1] = 241 osteoporotic women, 45 mg/day vitamin K2 and 150 mg elemental calcium, after two years
[2] = rabbits
[3] = rats, 100 mg/kg body weight daily

For `CC(C)=CCC/C(C)=C/CC/C(C)=C/CC/C(C)=C/CC1=C(C)C(=O)c2ccccc2C1=O` [vitamin K2], the “lumbar bone mineral density” value [1] is given as “maintain lumbar bone mineral density”, the fracture incidence ([1]; 30% in the control group) is given as 10% and the atherosclerotic plaque progression ([2]; 1-10 mg/kg daily for 10 weeks) is given as “inhibited the atherosclerotic plaque progression in the aorta and pulmonary arteries”. For the same molecule, the “total cholesterol levels, lipid peroxidation, ester cholesterol deposition in the aorta and factor X activity in plasma” value ([2]; compared to the control group) was “seen to reduce” and the “calcium in kidneys and aorta induced by megadose of synthetic vitamin D” value [3] was “inhibited the increase in calcium in both kidneys and aorta”.
